Columns and labels:
[1] = tested on: MEL624; experiment: Flow cytometry for active (cleaved) caspase-3, MEL624; format: cell-based, human; settings: WNT3A, 2 μM PLX4720, 24 hours
Method: (§1) Flow cytometry for Active Caspase-3. Cells were seeded in a 6-well dish at a density to achieve 90-100% confluence at harvest. 24 hours after seeding, cells were treated with the indicated conditions for the indicated amount of time. At the time of collection, supernatants were collected and pooled with trypsinized cells. Cells were fixed with 4% paraformaldehyde and permeabilized according to vendor's protocol for Cleaved Caspase-3 (Asp175) Antibody (AlexaFluor 488 Conjugate) (catalog #9669) (Cell Signaling, Beverly Mass.). The antibody was used at a final dilution of 1:100. Flow was performed on a BD FACSCanto H, and data analysed with FlowJo 8.8.6 (Tree Star) software. Experiments were performed with biological triplicates and data are representative of at least three independent experiments. For experiments involving siRNAs, cells were reverse transfected with 20 nM siRNA in 6-well dishes in triplicate with RNAiMax according to manufacturer's protocol. 48 hours following transfection, cells were treated with the indicated conditions for 24 hours and then harvested for analysis. Cells were harvested, stained, and analyzed as described above.

[2] = tested on: AXIN1; experiment: Immunoblot of steady-state AXIN1 levels in melanoma cells; format: cell-based, human
[3] = tested on: human A375 melanoma cells grown as xenografts; experiment: Xenograft assay, A375:GFP or A375:WNT3A tumors in NSG mice; format: in vivo, mouse; settings: 50 mg/kg PLX4720 oral gavage once daily
Method: Xenograft assays. NSG (NOD/SCID/IL2r-gamma (null)) mice were injected with 5×10^5 A375 cells stably expressing GFP or 5×10^5 A375 cells stably expressing WNT3A-IRES-GFP. Tumors were allowed to establish to approximately 100 mm^3, after which mice where tumor size-matched and allocated to five per treatment group (vehicle or PLX4720). WNT3A-IRES-GFP tumors grew slower and therefore the first day of treatment was day 14 while GFP expressing tumors were first treated on day 9. Treatment was by oral gavage once daily with 5% DMSO in 1% carboxymethyl cellulose or 50 mg/kg PLX4720 in 1% carboxymethyl cellulose (604 mM PLX4720 in DMSO was diluted 1:20 in 1% carboxymethylcellulose). Tumor size was determined by caliper measurements of tumor length and width every 3 to 4 days. Tumor volume was then calculated using the following formula: volume=(width)^2×length/2. Tumors were harvested 2 hours after the last dose and fixed in neutral-buffered formalin overnight at room temperature.

[4] = tested on: A2058; experiment: Flow cytometry for active (cleaved) caspase-3, A2058; format: cell-based, human; settings: 2 uM PLX4720, 24 hours, in % (unit assumed)
Method: as §1, with “experiments.” for “experiments. For experiments involving siRNAs, cells were reverse transfected with 20 nM siRNA in 6-well dishes in triplicate with RNAiMax according to manufacturer's protocol. 48 hours following transfection, cells were treated with the indicated conditions for 24 hours and then harvested for analysis. Cells were harvested, stained, and analyzed as described above.”
(§2) For experiments involving siRNAs, cells were reverse transfected with 20 nM siRNA in 6-well dishes in triplicate with RNAiMax according to manufacturer's protocol. 48 hours following transfection, cells were treated with the indicated conditions for 24 hours and then harvested for analysis. Cells were harvested, stained, and analyzed as described above.

[5] = tested on: A375 cells; experiment: Spheroid assay in three-dimensional collagen matrix; format: cell-based, human
Method: Spheroid Assay. A375 cells were used for the spheroid assays. Spheroids were formed and implanted in collagen as previously described (54). Spheroids were treated with indicated conditions 30 minutes after collagen polymerization. Images were obtained on a Nikon TiE inverted widefield high-resolution microscope (Nikon Melville, N.Y.).

[6] = tested on: A375; experiment: qPCR of endogenous Wnt target gene AXIN2, A375; format: cell-based, human; settings: A375; WNT3A CM, 2 μM PLX4720, 24 hours
Text: (§3) RNA purification and qRT-PCR analysis. RNA was purified using the RNeasy kit following the manufacturer's protocol (Qiagen; Maryland, Md.). cDNA was synthesized using RevertAid™ M-MuLV Reverse Transcriptase (Fermentas; Ontario, CAN). Light Cycler FastStart DNA Master SYBR Green1 (Roche; Mannheim, Germany) was used for real-time PCR as previously described (53). Quantitative PCR results presented in the manuscript are averages of a minimum of three biologic replicates.

[7] = tested on: SKMEL28; experiment: Flow cytometry for active (cleaved) caspase-3, SKMEL28; format: cell-based, human; settings: 2 uM PLX4720, 24 hours, in % (unit assumed)
Method: as §1, with “experiments.” for “experiments. For experiments involving siRNAs, cells were reverse transfected with 20 nM siRNA in 6-well dishes in triplicate with RNAiMax according to manufacturer's protocol. 48 hours following transfection, cells were treated with the indicated conditions for 24 hours and then harvested for analysis. Cells were harvested, stained, and analyzed as described above.”
as §2

[8] = tested on: A375 cells; experiment: Immunoblot of apoptosis markers (cleaved caspase-3, cleaved PARP1) in A375 cells; format: cell-based, human
[9] = tested on: AXIN1; experiment: qRT-PCR of AXIN1 mRNA in A375 cells; format: cell-based, human; settings: A375, 2 μM PLX4720, 24 hours
Text: as §3

[10] = tested on: COLO829; experiment: qPCR of endogenous Wnt target gene AXIN2, COLO829; format: cell-based, human; settings: WNT3A CM, 2 μM PLX4720, 24 hours
Text: as §3

[11] = A375, WNT3A and PLX4720 time course

## CCCS(=O)(=O)Nc1ccc(F)c(C(=O)c2c[nH]c3ncc(Cl)cc23)c1F [PLX4720, N-[3-[(5-Chloro-1H-pyrrolo[2,3-b]pyridin-3-yl)carbonyl]-2,4-difluorophenyl]-1-propanesulfonamide]
[1]
  SYNERGISTIC APOPTOSIS WITH WNT AND PLX4720?: YES
[2]; A375, Mel624, and COLO829, WNT3A plus 2 μM PLX4720 vs WNT3A alone, 24 hours
  steady-state levels of AXIN1: markedly reduced
[2]; [11]
  time after which almost no detectable AXIN1 remained: 16 to 20 h
  time to rapid decrease in steady-state levels of AXIN1: 1 to 2 h
[2]; SKMEL5, SKMEL28 and A2058, WNT3A plus 2 μM PLX4720 vs WNT3A alone, 24 hours
  steady-state AXIN1 levels: did not significantly decrease
[2]; absence of rWnt3A
  steady-state levels of AXIN1: slightly decreased
[2]; presence of rWnt3A
  steady-state levels of AXIN1: markedly diminished
[3]; A375:GFP tumors
  tumor growth: decreased tumor growth compared to drug vehicle
[3]; A375:WNT3A tumors, over four weeks
  tumor growth: near complete suppression
[4]; AXIN1/2 siRNA, L CM
  cleaved caspase-3-positive cells: 12.67 ± 0.89
[4]; AXIN1/2 siRNA, W3A CM
  cleaved caspase-3-positive cells: 15.07 ± 1.6
[4]; Control siRNA, L CM
  cleaved caspase-3-positive cells: 3.39 ± 0.17
[4]; Control siRNA, W3A CM
  cleaved caspase-3-positive cells: 4.45 ± 0.41
[5]; A375:GFP- and A375:WNT3A-derived spheroids, 2 μM PLX4720, 72 hours
  spheroid size: decreased spheroid size
[5]; spheroids expressing WNT3A, 2 μM PLX4720, 24 hours
  dead cells (EtBr staining): detection of dead cells
[5]; spheroids expressing WNT3A, 2 μM PLX4720, 72 hours
  number of invasive cells: dramatic decrease in the number of invasive cells
[6]
  SYNERGISTIC WNT ACTIVATION WITH PLX4720?: YES
[7]; AXIN1/2 siRNA, L CM
  cleaved caspase-3-positive cells: 31.47 ± 0.13
[7]; AXIN1/2 siRNA, W3A CM
  cleaved caspase-3-positive cells: 33.93 ± 4.1
[7]; Control siRNA, L CM
  cleaved caspase-3-positive cells: 6.02 ± 0.63
[7]; Control siRNA, W3A CM
  cleaved caspase-3-positive cells: 8.64 ± 1.9
[8]; [11]
  time at which cleaved caspase-3 was first detected: 12 to 16 h
[8]; A375, combined WNT3A and 2 μM PLX4720, 24 hours
  cleavage of the caspase-3 substrate PARP1: synergistic cleavage of the caspase-3 substrate, PARP1
[8]; A375, longer treatment with PLX4720, no exogenous WNT3A
  caspase3 activation: led to activation of caspase3
[9]
  AXIN1 gene expression (mRNA): no transcriptional regulation of AXIN1 gene expression
[10]
  SYNERGISTIC WNT ACTIVATION WITH PLX4720?: YES
